# Tested on: kynurenine production in IFN-γ-treated KATO-III cells
# Assay: Inhibitory activity on kynurenine production (Test Example 1)
# Assay type: cell-based
# Details: Homo sapiens, IFN-γ treatment, culture for 96 hours, read-out: IC50 value, inhibition of kynurenine production
# Experimental: This assay was performed according to a method modified from the method described in the Journal of Biological Chemistry (J. Biol. Chem.), vol. 263, pp. 2041-2048 (1988). Culture of KATO-III derived from human gastric cancer cells was performed by use of RPMI 1640 (GIBCO, 11875) supplemented with 10 vol % FBS (GIBCO, 10091-148, lot. 665285). 1 μL of a DMSO solution of the test substance was diluted with 199 μL of the culture medium, and the diluted solution was added to wells of a 384 well plate (10 μL/well). Then, IFN-γ (Sigma, 1-3265) was added to the culture medium so that the concentration of IFN-γ was 31.25 ng/mL, and the KATO-III cells were suspended at 50,000 cells/ml, in the culture medium. 40 μL of the suspension was added to each well (2,000 cells/well), and culture of the KATO-III cells was performed at 37° C. under a 5% CO2 atmosphere for 96 hours. The final concentration of DMSO was limited to 0.1 vol % or less so that DMSO itself might not affect the kynurenine concentration measured by this assay. After the culture, 10 μL of a 30 w/v % aqueous trichloroacetic acid solution was added to each well, and incubation was performed at 65° C. for 30 minutes. The plate was centrifuged at 2,500×g for 5 minutes, and then 15 μL of the supernatant in each well was transferred into another 384 well plate. To each of the transferred supernatants, 15 μL of a 2 w/v % solution of p-dimethylaminobenzaldehyde in acetic acid was added, incubation was performed at 65° C. for 20 minutes, and then the absorbance at 480 nm was measured.
# [formula] Sample: the absorbance value of the well to which a DMSO solution containing the test substance was added and in which cells were treated with IFN-γ. Blank: the absorbance value of the well to which only DMSO, not the test substance was added and in which cells were treated with IFN-γ. Control: the absorbance value of the well to which only DMSO, not the test substance was added and in which cells were not treated with IFN-γ.
# In this assay, expression of IDO in KATO-III cells is induced by IFN-γ treatment and then kynurenine in the culture medium is quantified. It is known that the kynurenine concentration in a culture medium increases in proportion to the enzymatic activity of intracellular IDO (for example, the Journal of Biological Chemistry (J. Biol. Chem.), vol. 263, pp. 2041-2048 (1988)). […] It is known that kynurenine production is inhibited by IDO inhibitors (for example, the Journal of Clinical Investigation (J. Clin. Invest.), vol. 117, No. 5, pp. 1147-1154 […]), and thus it is expected that Compound (I) also has an inhibitory effect on IDO.
row,IC50,SMILES
1,< 1000 nM,"O=S(=O)(Nc1nc2ccccc2nc1OC(c1cccnc1)C(F)(F)C(F)(F)F)c1cccc(Cl)c1Cl (centres unmarked) [Compound 46, 2,3-dichloro-N-{3-[3,3,3,2,2-pentafluoro-1-(pyridin-3-yl)-propoxy]quinoxalin-2-yl}benzenesulfonamide]"
2,< 1000 nM,"O=S(=O)(Nc1nc2ccccc2nc1OC(c1ccccn1)C(F)(F)F)c1ccccc1Cl (centres unmarked) [Compound 48, 2-chloro-N-{3-[2,2,2-trifluoro-1-(pyridin-2-yl)ethoxy]-quinoxalin-2-yl}benzenesulfonamide]"
3,< 1000 nM,"O=S(=O)(Nc1nc2ccccc2nc1OC(c1ccncc1)C(F)(F)F)c1ccccc1Cl (centres unmarked) [Compound 49, 2-chloro-N-{3-[2,2,2-trifluoro-1-(pyridin-4-yl)ethoxy]quinoxalin-2-yl}benzenesulfonamide]"
4,< 1000 nM,"O=S(=O)(Nc1nc2ccccc2nc1OC(c1ccc(Cl)cc1)C(F)(F)F)c1ccccc1Cl (centres unmarked) [Compound 53, 2-chloro-N-{3-[2,2,2-trifluoro-1-(4-chlorophenyl)ethoxy]-quinoxalin-2-yl}benzenesulfonamide]"
5,< 1000 nM,"N#Cc1ccc(C(Oc2nc3ccccc3nc2NS(=O)(=O)c2ccccc2Cl)C(F)(F)F)cn1 (centres unmarked) [Compound 54, 2-chloro-N-{3-[2,2,2-trifluoro-1-(6-cyanopyridin-3-yl)-ethoxy]quinoxalin-2-yl}benzenesulfonamide]"
6,< 1000 nM,"COCOc1ccc(C(Oc2nc3ccccc3nc2NS(=O)(=O)c2ccccc2Cl)C(F)(F)F)cc1 (centres unmarked) [Compound 56, 2-chloro-N-{3-[2,2,2-trifluoro-1-(4-methoxymethoxyphenyl)-ethoxy]quinoxalin-2-yl}benzenesulfonamide]"
7,< 1000 nM,"O=Cc1ccc(C(Oc2nc3ccccc3nc2NS(=O)(=O)c2ccccc2Cl)C(F)(F)F)cc1 (centres unmarked) [Compound 58, 2-chloro-N-{3-[2,2,2-trifluoro-1-(4-formylphenyl)ethoxy]-quinoxalin-2-yl}benzenesulfonamide]"
8,< 1000 nM,"O=S(=O)(Nc1nc2ccccc2nc1OC(c1ccc(F)cc1)C(F)(F)F)c1ccccc1Cl (centres unmarked) [Compound 59, 2-chloro-N-{3-[2,2,2-trifluoro-1-(4-fluorophenyl)ethoxy]-quinoxalin-2-yl}benzenesulfonamide]"
9,< 1000 nM,"O=S(=O)(Nc1nc2ccccc2nc1OC(c1ccc(CO)cc1)C(F)(F)F)c1ccccc1Cl (centres unmarked) [Compound 60, 2-chloro-N-{3-[2,2,2-trifluoro-1-(4-hydroxymethylphenyl)-ethoxy]quinoxalin-2-yl}benzenesulfonamide]"
10,< 1000 nM,"CN(C)Cc1ccc(C(Oc2nc3ccccc3nc2NS(=O)(=O)c2ccccc2Cl)C(F)(F)F)cc1 (centres unmarked) [Compound 62, 2-chloro-N-{3-[2,2,2-trifluoro-1-(4-dimethylaminomethyl-phenyl)ethoxy]quinoxalin-2-yl}benzenesulfonamide]"
11,< 1000 nM,"CN(C)C(=O)c1ccc(C(Oc2nc3ccccc3nc2NS(=O)(=O)c2ccccc2Cl)C(F)(F)F)cc1 (centres unmarked) [Compound 63, 2-chloro-N-{3-[2,2,2-trifluoro-1-(4-dimethylcarbamoyl-phenyl)ethoxy]quinoxalin-2-yl}benzenesulfonamide]"
12,< 1000 nM,"COc1ccc(C(Oc2nc3ccccc3nc2NS(=O)(=O)c2ccccc2Cl)C(F)(F)F)cn1 (centres unmarked) [Compound 64, 2-chloro-N-{3-[2,2,2-trifluoro-1-(6-methoxypyridin-3-yl)-ethoxy]quinoxalin-2-yl}benzenesulfonamide]"
13,< 1000 nM,"CC(C)(C#N)C(Oc1nc2ccccc2nc1NS(=O)(=O)c1ccccc1Cl)c1cccnc1 (centres unmarked) [Compound 67, 2-chloro-N-{3-[2-cyano-2-methyl-1-(pyridin-3-yl)propoxy]-quinoxalin-2-yl}benzenesulfonamide]"
14,< 1000 nM,"Cc1ccc(C(Oc2nc3ccccc3nc2NS(=O)(=O)c2c(C)nn(C)c2Cl)C(F)(F)F)cn1 (centres unmarked) [Compound 69, 5-chloro-1,3-dimethyl-N-{3-[2,2,2-trifluoro-1-(6-methylpyridin-3-yl)ethoxy]quinoxalin-2-yl}-1H-pyrazole-4-sulfonamide]"
15,< 1000 nM,"Cc1ccc(C(Oc2nc3ccccc3nc2NS(=O)(=O)c2c(C)noc2C)C(F)(F)F)cn1 (centres unmarked) [Compound 70, 3,5-dimethyl-N-{3-[2,2,2-trifluoro-1-(6-methylpyridin-3-yl)ethoxy]quinoxalin-2-yl}isoxazole-4-sulfonamide]"
16,< 1000 nM,"COc1cncc(C(Oc2nc3ccccc3nc2NS(=O)(=O)c2ccccc2Cl)C(F)(F)F)c1 (centres unmarked) [Compound 71, 2-chloro-N-{3-[2,2,2-trifluoro-1-(5-methoxypyridin-3-yl)-ethoxy]quinoxalin-2-yl}benzenesulfonamide]"
17,< 1000 nM,"O=S(=O)(Nc1nc2ccccc2nc1OC(c1cccnc1)C1CCOCC1)c1ccccc1Cl (centres unmarked) [Compound 73, 2-chloro-N-{3-[tetrahydropyran-4-yl(pyridin-3-yl)methoxy]-quinoxalin-2-yl}benzenesulfonamide]"
18,< 1000 nM,"O=S(=O)(Nc1nc2ccccc2nc1OC(c1cccnc1)C1(F)CCOCC1)c1ccccc1Cl (centres unmarked) [Compound 78, 2-chloro-N-{3-[4-fluorotetrahydropyran-4-yl(pyridin-3-yl)-methoxy]quinoxalin-2-yl}benzenesulfonamide]"
19,< 1000 nM,"CC(C)(C(Oc1nc2ccccc2nc1NS(=O)(=O)c1ccccc1Cl)c1cccnc1)S(C)(=O)=O (centres unmarked) [Compound 80, 2-chloro-N-{3-[2-methanesulfonyl-2-methyl-1-(pyridin-3-yl)-propoxy]quinoxalin-2-yl}benzenesulfonamide]"
20,< 1000 nM,"N#Cc1cccc(C(Oc2nc3ccccc3nc2NS(=O)(=O)c2ccccc2Cl)C(F)(F)F)c1 (centres unmarked) [Compound 82, 2-chloro-N-{3-[2,2,2-trifluoro-1-(3-cyanophenyl)ethoxy]-quinoxalin-2-yl}benzenesulfonamide]"
21,< 1000 nM,"O=S(=O)(Nc1nc2ccccc2nc1OC(c1cccc(F)c1)C(F)(F)F)c1ccccc1Cl (centres unmarked) [Compound 83, 2-chloro-N-{3-[2,2,2-trifluoro-1-(3-fluorophenyl)ethoxy]-quinoxalin-2-yl}benzenesulfonamide]"
22,< 1000 nM,"O=S(=O)(Nc1nc2ccccc2nc1OC(c1cccc(Cl)c1)C(F)(F)F)c1ccccc1Cl (centres unmarked) [Compound 84, 2-chloro-N-{3-[2,2,2-trifluoro-1-(3-chlorophenyl)ethoxy]-quinoxalin-2-yl}benzenesulfonamide]"
23,< 1000 nM,"O=S(=O)(Nc1nc2ccccc2nc1OC(c1ccc(Cl)nc1)C(F)(F)F)c1ccccc1Cl (centres unmarked) [Compound 85, 2-chloro-N-{3-[2,2,2-trifluoro-1-(6-chloropyridin-3-yl)-ethoxy]quinoxalin-2-yl}benzenesulfonamide]"
24,< 1000 nM,"O=S(=O)(Nc1nc2ccccc2nc1OC(c1ccc(Br)nc1)C(F)(F)F)c1ccccc1Cl (centres unmarked) [Compound 86, 2-chloro-N-{3-[2,2,2-trifluoro-1-(6-bromopyridin-3-yl)-ethoxy]quinoxalin-2-yl}benzenesulfonamide]"
25,< 1000 nM,"Cc1nn(C)c(Cl)c1S(=O)(=O)Nc1nc2ccccc2nc1OC(c1cccnc1)C1(F)CCOCC1 (centres unmarked) [Compound 87, 5-chloro-1,3-dimethyl-N-{3-[4-fluorotetrahydropyran-4-yl-(pyridin-3-yl)methoxy]quinoxalin-2-yl}-1H-pyrazole-4-sulfonamide]"
26,< 1000 nM,"Cc1noc(C)c1S(=O)(=O)Nc1nc2ccccc2nc1OC(c1cccnc1)C1(F)CCOCC1 (centres unmarked) [Compound 88, 3,5-dimethyl-N-{3-[4-fluorotetrahydropyran-4-yl(pyridin-3-yl)methoxy]quinoxalin-2-yl}isoxazole-4-sulfonamide]"
27,< 1000 nM,"O=S(=O)(Nc1nc2ccccc2nc1OC(c1ccc(C2CC2)nc1)C(F)(F)F)c1ccccc1Cl (centres unmarked) [Compound 89, 2-chloro-N-{3-[2,2,2-trifluoro-1-(6-cyclopropylpyridin-3-yl)ethoxy]quinoxalin-2-yl}benzenesulfonamide]"
28,< 1000 nM,"O=S(=O)(Nc1nc2ccccc2nc1OC1(c2cccnc2)CCOCC1)c1ccccc1Cl [Compound 90, 2-chloro-N-{3-{[4-(pyridin-3-yl)tetrahydropyran-4-yl]oxy}-quinoxalin-2-yl}benzenesulfonamide]"
29,1000 to 10000 nM,"CC(C)(Oc1nc2ccccc2nc1NS(=O)(=O)c1ccccc1Cl)c1cccnc1 [Compound 91, 2-chloro-N-{3-[1-methyl-1-(pyridin-3-yl)ethoxy]quinoxalin-2-yl}benzenesulfonamide]"

# From US8673908B2, “Kynurenine production inhibitor” (Kyowa Hakko Kirin Co., Ltd., priority 2008, dated 2014)
